The text below walks through data of patent US12178981B2, “Drug administration method” (Takeda Pharmaceutical Company Limited, priority 2017, dated 2024).

One series concerns brain tissue. The following applies: ddY mice; nano-bubbles (about 400 nm) and 5-FU in combination; brain tissue exposed to ultrasound; cited from earlier work.
A short description of series [1]: BBB permeation experiment of fluorescein using BBB Kit (Example 1). Format: in vitro ADME. The settings on record: rat, 2 hr, read-out: permeability coefficient (Papp). How it is done:
(§1) Using this D-PBS, fluorescein (fluorescein sodium manufactured by Wako Pure Chemical Industries, Code No. 213-00092) was dissolved to prepare a fluorescein stock solution.
(§2) The permeability coefficient (Papp) was calculated from the measured fluorescein concentration, and the intracerebral transferability of fluorescein (BBB permeability) was calculated.
(§3) • fluorescence wavelength: 520 nm • excitation wavelength: 480 nm • flash number: 6 times

For series [2], the system named is BBB Kit™ (RBT-24H). The description is as above. It is filed as in vitro ADME. The following applies: nano-bubble water (PS80); ultrasound exposure at not less than 100 mW/cm^2. How it is done: as §1, §2, §3
The nature of series [3]: BBB permeation experiment of fluorescein using BBB Kit, two nano-bubble waters (Example 4). It is filed as in vitro ADME. The following applies: rat, 2 hr, read-out: permeability coefficient (Papp). How it is done:
(§4) In addition, the fluorescein stock solution and the nano-bubble water prepared in Reference Example 2 were diluted with D-PBS such that the fluorescein concentration was 1 μM and nano-bubble density was 2×10^8 bubbles to prepare a culture solution B (volume: 500 μL) (n=2).
as §2

Series [4] deals with BBB Kit™ (RBT-24H). The description is as above. It is filed as in vitro ADME. The following applies: culture medium A (Reference Example 1) and culture medium B (Reference Example 2); ultrasound exposure at not less than 100 mW/cm^2. How it is done: as §4, §2
A further series deals with BBB. As to the kind of experiment: BBB permeation experiment of FITC dextran using rat (Example 6). The following applies: ultrasound exposure using nano-bubble water of Reference Example 1. How it is done:
The administration solution (0.4 mL) was injected into the rat tail vein at 1 mL/min using an injection tube and a needle of appropriate sizes (both sterilized disposable products). Using an ultrasound gene transfer apparatus (Sonitron GTS) manufactured by Nepa Gene Co., Ltd., exposure was performed for 60 sec at frequency 1 MHz and ultrasound intensity 2 W/cm^2 (n=3).
• fluorescence wavelength: 520 nm • excitation wavelength: 494 nm • flash number: 6 times

[5] abbreviates: control: fluorescein 1 μM in D-PBS without nano-bubble water.

As for `O=c1[nH]cc(F)c(=O)[nH]1` [5-FU, fluorouracil], in the series on brain tissue, the “duration for which transfer into the brain was observed” value was “at least 24 hr”.
As for `O=C1OC2(c3ccc(O)cc3Oc3cc(O)ccc32)c2ccccc21` [fluorescein, fluorescein sodium], the Papp at 2 h, 1 μM is 0.574 ×10⁻⁶ cm/s in series [1] (setting [5]); 11.2 ×10⁻⁶ cm/s in series [1] (fluorescein 1 μM + nano-bubble water (PS80) 2×10^8 bubbles, ultrasound 100 mW/cm^2, 1 MHz, 10 sec); 10.6 ×10⁻⁶ cm/s in series [1] (fluorescein 1 μM + nano-bubble water (PS80) 2×10^8 bubbles, ultrasound 250 mW/cm^2, 1 MHz, 10 sec); 12.7 ×10⁻⁶ cm/s in series [1] (fluorescein 1 μM + nano-bubble water (PS80) 2×10^8 bubbles, ultrasound 500 mW/cm^2, 1 MHz, 10 sec); 1.79 ×10⁻⁶ cm/s in series [3] (setting [5]); 11.1 ×10⁻⁶ cm/s in series [3] (culture medium A (Reference Example 1 nano-bubble water, 2×10^8 bubbles), fluorescein 1 μM, ultrasound 100 mW/cm^2, 1 MHz, 10 sec). For the same compound, the “BBB permeability compared with the control” value in the series with BBB Kit™ (RBT-24H) [2] and in the series on BBB Kit™ (RBT-24H) [4] was “clear promotion of BBB permeability” throughout.
As for “fluorescein isothiocyanate dextran [FITC dextran]”, the “brain transferability compared with the control” value in the series on BBB was “promotion of brain transferability”.
